According to patent US20260124201A1, “CYCLOPENTANE COMPOUND” (Kissei Pharmaceutical Co., Ltd., priority 2022, published 2026):

target: T1, human OX2R (Homo sapiens, UniProt O43614); assay: Measurement of OX2R agonist activity (intracellular calcium concentration change, Fluo4-AM, FDSS 7000); format: cell-based; details: compound concentration 10 μM; human OX2R-expressing CHO-K1 cells; 1 μM human orexin A peptide = 100%, medium alone = 0%
T1 construct: expressed in transfected cells
T1 sequence (O43614 1-444): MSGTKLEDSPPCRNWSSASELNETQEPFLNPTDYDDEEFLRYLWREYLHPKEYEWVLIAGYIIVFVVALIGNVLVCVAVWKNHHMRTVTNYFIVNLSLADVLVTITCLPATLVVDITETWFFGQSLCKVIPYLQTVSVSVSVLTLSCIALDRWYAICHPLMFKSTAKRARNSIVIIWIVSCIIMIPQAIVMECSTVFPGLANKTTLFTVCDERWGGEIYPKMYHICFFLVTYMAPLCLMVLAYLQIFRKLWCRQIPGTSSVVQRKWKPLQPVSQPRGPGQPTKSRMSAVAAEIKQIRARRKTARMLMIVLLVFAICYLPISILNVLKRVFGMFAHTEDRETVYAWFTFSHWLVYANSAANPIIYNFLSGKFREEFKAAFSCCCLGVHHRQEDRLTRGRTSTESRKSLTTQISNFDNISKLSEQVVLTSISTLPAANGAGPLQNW
Excerpt: The following abbreviations in the description, the figures and the tables have the following meanings, respectively. • AZADOL (registered trademark): 2-Hydroxy-2-azaadamantane • Boc2O: di-tert-butyl dicarbonate • DIPEA: N,N-diisopropylethylamine • DCM: dichloromethane • DMAP: 4-dimethylaminopyridine • DMF: N,N-dimethylformamide • DMSO: dimethylsulfoxide • Deoxo-Fluor: bis(2-methoxyethyl)-aminosulfur trifluoride • HATU: O-(7-azabenzotriazol-1-yl)-N,N,N′,N′-tetramethyluronium hexafluorophosphate • LDA: lithium diisopropylamide • MeCN: acetonitrile • Me4tBuXPhos: 2-di-tert-butylphosphino-3,4,5,6-tetramethyl-2′,4′,6′-triisopropyl-1,1′-biphenyl • MTBE: methyl tert-butyl ether • NMP: N-methylpyrrolidone • PdCl2(PPh3)2: dichlorobis(triphenylphosphine)palladium(II) • Pd(dba)2: bis(dibenzylideneacetone)palladium(0) • Pd2(dba)3: tris(dibenzylideneacetone)dipalladium(0) • Pd(dppf)Cl2: [1,1′-bis(diphenylphosphino)ferrocene]dichloropalladium(II) • Pd(PPh3)4: tetrakis(triphenylphosphine)palladium(0) • TEA: triethylamine • TFA: trifluoroacetic acid • THF: tetrahydrofuran • Xphos: 2-dicyclohexylphosphino-2′,4′,6′-triisopropylbiphenyl • Xphos Pd G3: (2-dicyclohexylphosphino-2′,4′,6′-triisopropyl-1,1′-biphenyl)[2-(2′-amino-1,1′-biphenyl)]palladium(II) methanesulfonic acid salt • 10% Pd/C: Palladium 10% on Carbon (wetted with ca. 55% water) • APS: aminopropylated silica gel • ODS: octadecyl-silylated silica gel • Method A: column chromatography with an aminopropylated silica gel column followed by a silica gel column • Chiral preparative column chromatography: chiral preparative column chromatography using YMC CHIRALART Cellulose-SB • Ref. No.: Reference Example Number • Str.: structural formula • Ex. No.: Example Number • Phys. data: physical data • ^1H-NMR: hydrogen nuclear magnetic resonance spectrum • CDCl3: chloroform-d1 • MS: mass spectrometry (The measured values in the tables were measured by electrospray ionization or multiionization using electrospray ionization-atmospheric pressure chemical ionization.) • Act.: activation rate of test substance at a compound concentration of 10 μM calculated by setting the fluorescence intensity obtained when human orexin A peptide was added at a concentration of 1 μM as 100% and the fluorescence intensity obtained when the medium alone was added as 0% • CHO: Chinese hamster ovary • HEPES: 2-[4-(2-hydroxyethyl)-1-piperazinyl]ethanesulfonic acid
A human OX2R sequence (Accession No. NM_001526.4) was inserted into the multiple cloning site of pcDNA3.4 (Life Technologies Japan Ltd.) to clone a plasmid vector for human OX2R expression. The plasmid was introduced into CHO-K1 cells using Lipofectamine 2000 (Life Technologies Japan Ltd.). Two days later, the transgenic CHO-K1 cells were passaged into 175T flasks and cultured selectively for 6 days. As a selection medium, Ham's F-12 Nutrient Mix (Life Technologies Japan Ltd.), containing Geneticin (registered trademark) (Life Technologies Japan Ltd.) at a final concentration of 1 mg/mL and inactivated fetal bovine serum (Biowest) at a final concentration of 10%, was used. After the selective culture, the cells were reseeded into 96-well plates, and a human OX2R-expressing cell line was obtained by limiting dilution.
The agonist effects of test substances on human OX2R were evaluated using the intracellular calcium concentration-change upon stimulation as an indicator. A day before measurement of the intracellular calcium concentrations, human OX2R-expressing cells suspended in a medium were seeded into 384-well plates at 5×10^3 cells/50 μL/well and cultured overnight in an incubator set at 37° C. and 5% CO2. After incubation, the medium was removed and replaced with 20 μL of a loading buffer. […]

SMILES	Act. (%): activation rate of test substance [%]
CON(C)C(=O)[C@@]1(Cc2ccc(C(F)(F)F)c(-c3ncc(F)cn3)c2)CC[C@H](NS(C)(=O)=O)C1 (relative stereo) [Example 25]	63
CON(C)C(=O)[C@@]1(Cc2cccc(-c3cscn3)c2)CC[C@H](NS(C)(=O)=O)C1 (relative stereo) [Example 16]	91
CON(C)C(=O)[C@]1(Cc2cccc(-c3ncccn3)c2)C[C@@H](NS(C)(=O)=O)C(F)(F)C1 [Example 65, (1R,4R)-3,3-Difluoro-N-methoxy-N-methyl-4-(methylsulfonamido)-1-(3-(pyrimidin-2-yl)benzyl)cyclopentane-1-carboxamide]	86
CON(C)C(=O)[C@@]1(Cc2cccc(-c3nc(C)co3)c2)CC[C@H](NS(C)(=O)=O)C1 (relative stereo) [Example 13]	90
CN(O)C(=O)[C@@]1(Cc2cccc(-c3ncccn3)c2)CC[C@H](NS(C)(=O)=O)C1 (relative stereo) [Example 30, (1R*,3S*)—N-Hydroxy-N-methyl-3-(methylsulfonamido)-1-(3-(pyrimidin-2-yl)benzyl)cyclopentane-1-carboxamide]	48
CON(C)C(=O)[C@@]1(Cc2cccc(-c3ccccc3O)c2)CC[C@H](NS(C)(=O)=O)C1 (relative stereo) [Example 11]	71
C=CS(=O)(=O)N[C@H]1CC[C@](Cc2ccc(F)c(-c3ncc(F)cn3)c2)(C(=O)N(C)OC)C1 [Example 53, (1R,3S)-1-(4-Fluoro-3-(5-fluoropyrimidin-2-yl)benzyl)-N-methoxy-N-methyl-3-(vinylsulfonamido)cyclopentane-1-carboxamide]	106
CON(C)C(=O)C1(Cc2cccc(-c3ncccn3)c2)CCC(NS(C)(=O)=O)C1 (single isomer, unassigned) [Example 46, N-Methoxy-N-methyl-3-(methylsulfonamido)-1-(3-(pyrimidin-2-yl)benzyl)cyclopentane-1-carboxamide]	93
CON(C)C(=O)[C@@]1(Cc2ccc(Cl)c(-c3ncc(F)cn3)c2)C[C@H](F)[C@H](NS(C)(=O)=O)C1 [Example 62, (1R,3S,4R)-1-(4-Chloro-3-(5-fluoropyrimidin-2-yl)benzyl)-3-fluoro-N-methoxy-N-methyl-4-(methylsulfonamido)cyclopentane-1-carboxamide]	96
CON(C)C(=O)[C@@]1(Cc2cccc(-c3ncccn3)c2)C[C@H](F)[C@H](NS(C)(=O)=O)C1 (relative stereo) [Example 33]	83
CON(C)C(=O)[C@@]1(Cc2ccc(F)c(-c3ncc(F)cn3)c2)CC[C@H](NS(=O)(=O)CF)C1 [Example 50, (1R,3S)-1-(4-Fluoro-3-(5-fluoropyrimidin-2-yl)benzyl)-3-((fluoromethyl)sulfonamido)-N-methoxy-N-methylcyclopentane-1-carboxamide]	110
CO[C@H]1C[C@](Cc2cccc(-c3ncc(F)cn3)c2)(C(=O)N(C)OC)C[C@H]1NS(C)(=O)=O [Example 67, (1R,3S,4R)-1-(3-(5-Fluoropyrimidin-2-yl)benzyl)-N,3-dimethoxy-N-methyl-4-(methylsulfonamido)cyclopentane-1-carboxamide]	88
CS(=O)(=O)N[C@H]1CC[C@](Cc2cccc(-c3ccccc3)c2)(C(=O)NCCO)C1 (relative stereo) [Example 73, (1R*,3S*)-1-([1,1′-Biphenyl]-3-ylmethyl)-N-(2-hydroxyethyl)-3-(methylsulfonamido)cyclopentane-1-carboxamide]	36
CON(C)C(=O)[C@@]1(Cc2ccc(Cl)c(-c3ncc(F)cn3)c2)CC[C@H](NS(C)(=O)=O)C1 [Example 49, (1R,3S)-1-(4-Chloro-3-(5-fluoropyrimidin-2-yl)benzyl)-N-methoxy-N-methyl-3-(methylsulfonamido)cyclopentane-1-carboxamide]	88
CCS(=O)(=O)N[C@@H]1C[C@@](Cc2cc(-c3ncccn3)ccc2F)(C(=O)N(C)OC)C[C@@H]1F [Example 61, (1R,3R,4S)-3-(Ethylsulfonamido)-4-fluoro-1-(2-fluoro-5-(pyrimidin-2-yl)benzyl)-N-methoxy-N-methylcyclopentane-1-carboxamide]	105
CS(=O)(=O)N[C@H]1CC[C@](Cc2cccc(-c3ccccc3)c2)(C(=O)N2CCCO2)C1 (relative stereo) [Example 7, N-((1S*,3R*)-3-([1,1′-Biphenyl]-3-ylmethyl)-3-(isoxazolidine-2-carbonyl)cyclopentyl)methanesulfonamide]	70
CON(C)C(=O)[C@@]1(Cc2cccc(-c3ncccn3)c2)CC[C@H](NS(=O)(=O)C2(C)CC2)C1 (relative stereo) [Example 31, (1R*,3S*)—N-Methoxy-N-methyl-3-((1-methylcyclopropane)-1-sulfonamido)-1-(3-(pyrimidin-2-yl)benzyl)cyclopentane-1-carboxamide]	107
CON(C)C(=O)[C@@]1(Cc2cccc(-c3ncc(F)cn3)c2)C[C@H](F)[C@H](NS(=O)(=O)C(C)C)C1 [Example 58, (1R,3S,4R)-3-Fluoro-1-(3-(5-fluoropyrimidin-2-yl)benzyl)-N-methoxy-N-methyl-4-((1-methylethyl)sulfonamido)cyclopentane-1-carboxamide]	95
C[C@@H]1CCCN1C(=O)[C@@]1(Cc2cccc(-c3ccccc3)c2)CC[C@H](NS(C)(=O)=O)C1 (relative stereo) [Example 9]	58
CON(C)C(=O)[C@@]1(Cc2cccc(-c3ccc(F)cn3)c2)CC[C@H](NS(C)(=O)=O)C1 (relative stereo) [Example 12, (1R*,3S*)-1-(3-(5-Fluoropyridin-2-yl)benzyl)-N-methoxy-N-methyl-3-(methylsulfonamido)cyclopentane-1-carboxamide]	86
CON(C)C(=O)[C@@]1(Cc2cccc(-c3ccccc3)c2)CC[C@H](NS(C)(=O)=O)C1 (relative stereo) [Example 2, (1R*,3S*)-1-([1,1′-Biphenyl]-3-ylmethyl)-N-methoxy-N-methyl-3-(methylsulfonamido)cyclopentane-1-carboxamide]	84
CON(C)C(=O)[C@]1(Cc2cccc(-c3ncc(F)cn3)c2)C[C@@H](NS(=O)(=O)N(C)C)C(F)(F)C1 (relative stereo) [Example 41]	93
CON(C)C(=O)[C@@]1(Cc2cccc(-c3ncc(C(F)(F)F)cn3)c2)CC[C@H](NS(C)(=O)=O)C1 (relative stereo) [Example 19]	45
CO[C@H]1CCN(C(=O)[C@@]2(Cc3cccc(-c4ccccc4)c3)CC[C@H](NS(C)(=O)=O)C2)C1 (relative stereo) [Example 70]	27
